# Target: PD-1/PD-L1 (Homo sapiens (Human), UniProt Q9NZQ7)
# Test: PD-1/PD-L1 Homogeneous Time-Resolved Fluorescence (HTRF) Binding Assay
# Settings: recombinant human PD-1 (3 nM) and PD-L1 (10 nM), 25° C., PBS pH 7.4
# In short: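 Fc-tagged human PD-1 (25-167, 3 nM) and His-tagged PD-L1 (19-238, 10 nM) preincubated with inhibitor 40 min in PBS pH 7.4, 0.05% Tween-20, 0.1% BSA, 1% DMSO, 25 °C. Binding detected by HTRF (Eu anti-IgG/APC anti-His, 665/620 nm) after 60 min; IC50 from percent control activity.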
# PD-1/PD-L1, sequence (Q9NZQ7 19-238): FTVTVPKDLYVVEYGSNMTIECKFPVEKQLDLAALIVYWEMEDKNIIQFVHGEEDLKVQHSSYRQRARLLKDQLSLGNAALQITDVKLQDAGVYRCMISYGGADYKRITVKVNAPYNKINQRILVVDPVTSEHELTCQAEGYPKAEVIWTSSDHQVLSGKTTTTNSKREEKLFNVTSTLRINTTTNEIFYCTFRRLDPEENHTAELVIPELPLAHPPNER
row,Structure (SMILES),IC50 [µM]
1,"Cc1c(Nc2nccc3c(CN4CC[C@H](O)C4)ccnc23)cccc1-c1cccc(-c2nc3cc(CN4CC[C@H](C(=O)O)C4)cc(C#N)c3o2)c1C [Example 144, (S)-1-((7-cyano-2-(3′-((4-(((S)-3-hydroxypyrrolidin-1-yl)methyl)-1,7-naphthyridin-8-yl)amino)-2,2′-dimethyl-[1,1′-biphenyl]-3-yl)benzo[d]oxazol-5-yl)methyl)pyrrolidine-3-carboxylic acid]",≤ 0.01
2,"Cc1c(-c2nc3c(o2)CN(C(=O)CN2CC[C@@H](O)C2)C3)cccc1-c1cccc(-c2nc3cc(CN4CC[C@@H](C(=O)O)C4)cc(C#N)c3o2)c1C [Example 126, (R)-1-((7-cyano-2-(3′-(5-(2-((R)-3-hydroxypyrrolidin-1-yl)acetyl)-5,6-dihydro-4H-pyrrolo[3,4-d]oxazol-2-yl)-2,2′-dimethyl-[1,1′-biphenyl]-3-yl)benzo[d]oxazol-5-yl)methyl)pyrrolidine-3-carboxylic acid]",≤ 0.01
3,"Cc1c(-c2nc3cc(CN4CCCC[C@H]4C(=O)O)cc(C#N)c3o2)cccc1-c1cccc(NC(=O)c2nc3c(n2C)CCN(C)C3)c1Cl [Example 52, (S)-1-((2-(2′-chloro-3′-(1,5-dimethyl-4,5,6,7-tetrahydro-1H-imidazo[4,5-c]pyridine-2-carboxamido)-2-methylbiphenyl-3-yl)-7-cyanobenzo[d]oxazol-5-yl)methyl)piperidine-2-carboxylic acid]",≤ 0.01
4,"Cc1c(-c2nc3cc(CN4CC[C@@](C)(C(=O)O)C4)cc(C#N)c3o2)cccc1-c1cccc(-c2nc3c(s2)CN(C(=O)CN2CC[C@H](O)C2)C3)c1C [Example 221, (R)-1-((7-cyano-2-(3′-(5-(2-((S)-3-hydroxypyrrolidin-1-yl)acetyl)-5,6-dihydro-4H-pyrrolo[3,4-d]thiazol-2-yl)-2,2′-dimethylbiphenyl-3-yl)benzo[d]oxazol-5-yl)methyl)-3-methylpyrrolidine-3-carboxylic acid]",≤ 0.01
5,"Cc1c(-c2nc3cc(CN4CC[C@@H](C(=O)O)C4)cc(Cl)c3o2)cccc1-c1cccc(Nc2nccc3cc(CN4CC[C@H](O)C4)cnc23)c1Cl [Example 29, (R)-1-((7-chloro-2-(2′-chloro-3′-(3-(((S)-3-hydroxypyrrolidin-1-yl)methyl)-1,7-naphthyridin-8-ylamino)-2-methylbiphenyl-3-yl)benzo[d]oxazol-5-yl)methyl)pyrrolidine-3-carboxylic acid]",≤ 0.01
6,"Cc1c(Nc2nccc3cc(CN4CC[C@@H](O)C4)cnc23)cccc1-c1cccc(-c2nc3cc(CN4CCC(C(=O)O)CC4)cc(C#N)c3o2)c1C [Example 186, (R)-1-((7-cyano-2-(3′-(3-((3-hydroxypyrrolidin-1-yl)methyl)-1,7-naphthyridin-8-ylamino)-2.2′-dimethylbiphenyl-3-yl)benzo [d]oxazol-5-yl)methyl)piperidine-4-carboxylic acid]",≤ 0.01
7,"Cc1c(Nc2nccc3cc(CNCC(C)(C)O)cnc23)cccc1-c1cccc(-c2nc3cc(CN4CCCC[C@H]4C(=O)O)cc(Cl)c3o2)c1C [Example 4, (S)-1-((7-chloro-2-(3′-((3-(((2-hydroxy-2-methylpropyl)amino)methyl)-1,7-naphthyridin-8-yl)amino)-2,2′-dimethyl-[1,1′-biphenyl]-3-yl)benzo[d]oxazol-5-yl)methyl)piperidine-2-carboxylic acid]",≤ 0.01
8,"CCN1CCc2c(nc(C(=O)Nc3cccc(-c4cccc(-c5nc6cc(CN7CC[C@@](C)(C(=O)O)C7)cc(C#N)c6o5)c4C)c3Cl)n2C)C1 [Example 95, (R)-1-((2-(2′-chloro-3′-(5-ethyl-1-methyl-4,5,6,7-tetrahydro-1H-imidazo[4,5-c]pyridine-2-carboxamido)-2-methylbiphenyl-3-yl)-7-cyanobenzo[d]oxazol-5-yl)methyl)-3-methylpyrrolidine-3-carboxylic acid]",≤ 0.01
9,"Cc1c(-c2nc3cc(CNCCO)cc(C#N)c3o2)cccc1-c1cccc(-c2nc3c(s2)CN(C(C)C)CC3)c1C [Example 120, 5-(((2-hydroxyethyl)amino)methyl)-2-(3′-(5-isopropyl-4,5,6,7-tetrahydrothiazolo[5,4-c]pyridin-2-yl)-2,2′-dimethyl-[1,1′-biphenyl]-3-yl)benzo[d]oxazole-7-carbonitrile]",≤ 0.01
10,"Cc1c(-c2nc3cc(CN4CC[C@@H](C(=O)O)C4)cc(C#N)c3o2)cccc1-c1cccc(Nc2nccc3cc(C4CCCN4)cnc23)c1Cl (stereo partly drawn) [Example 97, (3R)-1-((2-(2′-chloro-2-methyl-3′-(3-(pyrrolidin-2-yl)-1,7-naphthyridin-8-ylamino)biphenyl-3-yl)-7-cyanobenzo[d]oxazol-5-yl)methyl)pyrrolidine-3-carboxylic acid]",≤ 0.01
11,"Cc1c(Nc2nccc3cc(CN[C@H](C)CO)cnc23)cccc1-c1cccc(-c2nc3cc(CN4CCC(C(=O)O)CC4)cc(C#N)c3o2)c1C [Example 202, (R)-1-((7-cyano-2-(3′-(3-((1-hydroxypropan-2-ylamino)methyl)-1,7-naphthyridin-8-ylamino)-2,2′-dimethylbiphenyl-3-yl)benzo[d]oxazol-5-yl)methyl)piperidine-4-carboxylic acid]",≤ 0.01
12,"Cc1c(Nc2nccc3cc(CN4CC[C@@H](O)C4)cnc23)cccc1-c1cccc(-c2nc3cc(CNCCC(=O)O)cc(C#N)c3o2)c1C [Example 101, (R)-3-((7-cyano-2-(3′-(3-((3-hydroxypyrrolidin-1-yl)methyl)-1,7-naphthyridin-8-ylamino)-2,2′-dimethylbiphenyl-3-yl)benzo[d]oxazol-5-yl)methylamino)propanoic acid]",≤ 0.01
13,"Cc1c(-c2nc3c(o2)CNCC3)cccc1-c1cccc(-c2nc3cc(CN4CC[C@@H](C(=O)O)C4)cc(Cl)c3o2)c1C [Example 78, (R)-1-((7-chloro-2-(2,2′-dimethyl-3′-(4,5,6,7-tetrahydrooxazolo[5,4-c]pyridin-2-yl)-[1,1′-biphenyl]-3-yl)benzo[d]oxazol-5-yl)methyl)pyrrolidine-3-carboxylic acid]",≤ 0.01
14,"Cc1c(Nc2nccc3cc(CN4CC[C@@H](O)C4)cnc23)cccc1-c1cccc(-c2nc3cc(CN4CC[C@H](CC(=O)O)C4)cc(C#N)c3o2)c1C [Example 173, 2-((R)-1-((7-cyano-2-(3′-(3-(((R)-3-hydroxypyrrolidin-1-yl)methyl)-1,7-naphthyridin-8-ylamino)-2,2′-dimethylbiphenyl-3-yl)benzo[d]oxazol-5-yl)methyl)pyrrolidin-3-yl)acetic acid]",≤ 0.01

# Results, then the compound that gave them:
row,IC50 [µM],Structure (SMILES)
1,≤ 0.01,"Cc1c(Nc2nccc3cc(CN[C@H](C)CO)cnc23)cccc1-c1cccc(-c2nc3cc(CN4CC[C@@](C)(C(=O)O)C4)cc(C#N)c3o2)c1C [Example 196, (R)-1-((7-cyano-2-(3′-(3-(((R)-1-hydroxypropan-2-ylamino)methyl)-1,7-naphthyridin-8-ylamino)-2,2′-dimethylbiphenyl-3-yl)benzo[d]oxazol-5-yl)methyl)-3-methylpyrrolidine-3-carboxylic acid]"
2,≤ 0.01,"CC[C@@H](CO)NCc1cnc2c(Nc3cccc(-c4cccc(-c5nc6cc(CN7CC[C@@](C)(C(=O)O)C7)cc(C#N)c6o5)c4C)c3C)nccc2c1 [Example 194, (R)-1-((7-cyano-2-(3′-(3-(((S)-1-hydroxybutan-2-ylamino)methyl)-1,7-naphthyridin-8-ylamino)-2,2′-dimethylbiphenyl-3-yl)benzo[d]oxazol-5-yl)methyl)-3-methylpyrrolidine-3-carboxylic acid]"
3,≤ 0.01,"Cc1c(-c2nc3cc(CN4CC[C@@H](C(=O)O)C4)cc(C#N)c3o2)cccc1-c1cccc(-n2cc3c(n2)CN(C(C)C)CC3)c1Cl [Example 87, (R)-1-((2-(2′-chloro-3′-(6-isopropyl-4,5,6,7-tetrahydro-2H-pyrazolo[3,4-c]pyridin-2-yl)-2-methylbiphenyl-3-yl)-7-cyanobenzo[d]oxazol-5-yl)methyl)pyrrolidine-3-carboxylic acid]"
4,≤ 0.01,"Cc1c(Nc2nccc3cc(CN[C@H](C)CO)cnc23)cccc1-c1cccc(-c2nc3cc(CN4CC[C@@H](C(=O)O)C4)cc(C#N)c3o2)c1C [Example 258, (R)-1-((7-cyano-2-(3′-(3-(((R)-1-hydroxypropan-2-ylamino)methyl)-1,7-naphthyridin-8-ylamino)-2,2′-dimethylbiphenyl-3-yl)benzo[d]oxazol-5-yl)methyl)pyrrolidine-3-carboxylic acid]"
5,≤ 0.01,"Cc1c(-c2nc3cc(CN4CC[C@@H](C(=O)O)C4)cc(C#N)c3o2)cccc1-c1cccc(-n2cc3c(n2)CN(C)C3)c1Cl [Example 55, (R)-1-((2-(2′-chloro-2-methyl-3′-(5-methyl-5,6-dihydropyrrolo[3,4-c]pyrazol-2(4H)-yl)biphenyl-3-yl)-7-cyanobenzo[d]oxazol-5-yl)methyl)pyrrolidine-3-carboxylic acid]"
6,≤ 0.01,"Cc1c(NC(=O)c2nc3c(n2C)CCN(C2CC2)C3)cccc1-c1cccc(-c2nc3cc(CN4CC[C@H](C(=O)O)C4)cc(C#N)c3o2)c1C [Example 39, (S)-1-((7-cyano-2-(3′-(5-cyclopropyl-1-methyl-4,5,6,7-tetrahydro-1H-imidazo[4,5-c]pyridine-2-carboxamido)-2,2′-dimethylbiphenyl-3-yl)benzo[d]oxazol-5-yl)methyl)pyrrolidine-3-carboxylic acid]"
7,≤ 0.01,"CCN1CCc2c(nc(C(=O)Nc3cccc(-c4cccc(-c5nc6cc(CN7CC[C@H](C(=O)O)C7)cc(C#N)c6o5)c4C)c3Cl)n2C)C1 [Example 142, (S)-1-((2-(2′-chloro-3′-(5-ethyl-1-methyl-4,5,6,7-tetrahydro-1H-imidazo[4,5-c]pyridine-2-carboxamido)-2-methyl-[1,1′-biphenyl]-3-yl)-7-cyanobenzo[d]oxazol-5-yl)methyl)pyrrolidine-3-carboxylic acid]"

# Source: patent US10308644B2, “Heterocyclic compounds as immunomodulators” (Incyte Corporation, priority 2016, dated 2019)
